Reference: patent US20060046966A1, “Antipicornaviral compounds and compositions, their pharmaceutical uses, and materials for their synthesis” (Agouron Pharmaceuticals, Inc., priority 1998, published 2006)
Read-outs that look alike come from different tables or passages of the source.

Tests used:
[1] = Cytotoxicity in mock-infected H1-HeLa cells (antirhinoviral assay, XTT); format: cell-based; settings: human, 50% cytotoxic dose, two days
Description: (§1) H1-HeLa cells were infected with HRV-14 at a multiplicity of infection (m.o.i.) of 0.13 (virus particles/cell) or mock-infected with medium only. Infected or mock-infected cells were resuspended at 8×10^5 cells per mL, and incubated with appropriate concentrations of the compounds to be tested. Two days later, XTT/PMS was added to test plates and the amount of formazan produced was quantified spectrophotometrically at 450/650 nm. The EC50 value was calculated as the concentration of compound that increased the percentage of formazan production in compound-treated, virus-infected cells to 50% of that produced by compound-free, mock-infected cells. The 50% cytotoxic dose (CC50) was calculated as the concentration of compound that decreased the percentage of formazan produced in compound-treated, mock-infected cells to 50% of that produced by compound-free, mock-infected cells. The therapeutic index (TI) was calculated by dividing the CC50 value by the EC50 value.
(§2) All strains of human rhinovirus (HRV) for use in this assay were purchased from American Type Culture Collection (ATCC), except for HRV serotype-14 (produced from the infectious cDNA clone constructed by Dr. Robert Rueckert, Institute for Molecular Virology, University of Wisconsin, Madison, Wis.). HRV stocks were propagated and viral assays were performed in H1-HeLa cells (ATCC). Cells were grown in minimal essential medium with 10% fetal bovine serum, available from Life Technologies (Gaithersburg, Md.).

HRV-14 = experiment: Antirhinoviral H1-HeLa cell culture assay, HRV-14; format: cell-based, human rhinovirus; settings: HRV serotype-14, H1-HeLa cells
Description: (§3) In this cell protection assay, the ability of compounds to protect cells against HRV infection was measured by the XTT dye reduction method, which is described in Weislow et al., J. Natl. Cancer Inst. 1989, vol. 81, 577-586.
as §1, §2
(§4) The compounds were tested against control compounds WIN 51711, WIN 52084, and WIN 54954 (obtained from Sterling-Winthrop Pharmaceuticals), Pirodavir (obtained from Janssen Pharmaceuticals), and Pleconaril (prepared according to the method described in Diana et al., J. Med. Chem 1995, vol. 38, 1355). Antiviral data obtained for the test compounds are shown in Tables 1 and 3, where all data are for HRV serotype-14 unless otherwise noted in parentheses.

[2] = molecular target: T1, rhinovirus 3C protease from HRV serotype-14 (Human rhinovirus 14, UniProt P03303); experiment: Inhibition of rhinovirus 3C protease (FRET assay), serotype 14; format: biochemical; settings: HRV serotype-14 3C protease, progress curves in enzyme start experiments; for kinact/KI: read-out: Protease Inhibition kobs/[I]
T1 construct: Recombinant rhinovirus 3C proteases; made in house
T1 sequence (P03303 1538-1719): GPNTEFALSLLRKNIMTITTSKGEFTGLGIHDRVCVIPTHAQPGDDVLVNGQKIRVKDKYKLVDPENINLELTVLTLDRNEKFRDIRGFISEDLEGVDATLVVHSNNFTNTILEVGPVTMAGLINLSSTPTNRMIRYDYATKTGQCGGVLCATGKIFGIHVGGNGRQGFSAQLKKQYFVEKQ
Description: Stock solutions (50 mM, in DMSO) of various compounds were prepared; dilutions were in the same solvent. Recombinant rhinovirus 3C proteases (see Birch et al., “Purification of recombinant human rhinovirus 14 3C protease expressed in Escherichia coli,” Protein Expr. Pur. 1995, 6(5), 609-618) from serotypes 14, 16, and 2 were prepared by the following standard chromatographic procedures: (1) ion exchange using Q Sepharose Fast Flow from Pharmacia; (2) affinity chromatography using Affi-Gel Blue from Biorad; and (3) sizing using Sephadex G-100 from Pharmacia. Each assay sample contained 2% DMSO, 50 mM tris pH 7.6, 1 mM EDTA, a test compound at the indicated concentration, approximately 1 μM substrate, and 50-100 nM protease. The kobs/I values were obtained from reactions initiated by addition of enzyme rather than substrate. RVP activity was measured in the fluorescence resonance energy transfer assay. The substrate was (N-terminal) DABCYL-(Gly-Arg-Ala-Val-Phe-Gln-Gly-Pro-Val-Gly)-EDANS. In the uncleaved peptide, the EDANS fluorescence was quenched by the proximal DABCYL moiety. When the peptide was cleaved, the quenching was relieved, and activity was measured as an increase in fluorescence signal. In Table 1, all data are for rhinovirus 3C protease from HRV serotype-14 (produced from the infectious cDNA clone constructed by Dr. Robert Rueckert, Institute for Molecular Virology, University of Wisconsin, Madison, Wis.). […] The data in the column designated kobs/[I] were measured from progress curves in enzyme start experiments.

HRV (1A) = experiment: Antirhinoviral H1-HeLa cell culture assay, HRV serotype 1A; format: cell-based; settings: Human rhinovirus sp., H1-HeLa cells, XTT
Description: as §3, §1, §2, §4

HRV (10) = experiment: Antirhinoviral H1-HeLa cell culture assay, HRV serotype 10; format: cell-based, human rhinovirus; settings: Human rhinovirus sp., H1-HeLa, H1-HeLa cells, XTT
Description: as §3, §1, §2, §4

HRV (2) = experiment: Antirhinoviral H1-HeLa cell culture assay, HRV serotype 2; format: cell-based, human rhinovirus; settings: Human rhinovirus sp., H1-HeLa, H1-HeLa cells, XTT
Description: as §3, §1, §2, §4

HRV (89) = experiment: Antirhinoviral H1-HeLa cell culture assay, HRV serotype 89; format: cell-based, human rhinovirus; settings: Human rhinovirus sp., H1-HeLa cells, XTT
Description: as §3, §1, §2, §4

[3] = Rhinovirus B, HRV14, H1-HeLa, Table 1, XTT dye reduction, read-out: Cell Protection EC50
[4] = Rhinovirus B, HRV14, H1-HeLa, Table 3, XTT, read-out: EC50

Compound	CC50 at 2 days [1] [µM]	EC50 (HRV-14; [3]) [µM]	EC50 (HRV-14; [4]) [µM]	kinact/KI [2] [M⁻¹ s⁻¹]	EC50 (HRV (1A)) [µM]	EC50 (HRV (10)) [µM]	EC50 (HRV (2)) [µM]	EC50 (HRV (89)) [µM]	EC50 (HRV-14; Table 1, XTT dye reduction, read-out: Cell Protection EC50) [µM]	EC50 (HRV-14; Table 3, XTT, read-out: EC50) [µM]	Protease Inhibition kobs/[I] [2]
CCOC(=O)/C=C/[C@H](CCC(N)=O)NC(=O)[C@H](Cc1ccccc1)NC(=O)[C@H](CC(C)C)NC(=O)c1nc(C)c[nH]1 [Compound A-21]	> 100	2.5	2.5	17800							
CC(C)[C@H](NC(=O)C1SCCS1)C(=O)N[C@@H](Cc1ccc(F)cc1)C(=O)N[C@H](/C=C/C(=O)OCc1cccnc1)CCC(N)=O [Compound A-18]	> 100	1.5	1.5	292000							
CCOC(=O)/C=C/[C@H](CCC(N)=O)NC(=O)[C@H](Cc1ccc(F)cc1)NC(=O)[C@@H](NC(=O)C1SCCS1)C(C)(C)C [Compound A-17]	> 100	0.06	0.06	167000	1.8	3.3					
Cc1cc(C(=O)N[C@H](C(=O)C[C@@H](Cc2ccc(F)cc2)C(=O)N[C@H](/C=C2\CCOC2=O)C[C@@H]2CCNC2=O)C(C)C)no1 [Compound B-3, 2-{(5′-Methylisoxazole-3′-carbonyl)-L-ValΨ(COCH2)-L-(4-F-Phe)-L-((S)-Pyrrol-Ala)}-E-(α-Vinyl-γ-Butyrolactone)]		0.18	0.18	465000							
CCOC(=O)/C=C/[C@H](CCC(N)=O)NC(=O)[C@H](Cc1ccc(C)cc1)NC(=O)[C@@H](NC(=O)c1ccc[nH]1)C(C)(C)C [Compound A-16]	> 100	0.45	0.45	173000	4.8	4.5					
CCOC(=O)/C=C/[C@H](CCC(N)=O)NC(=O)[C@H](Cc1ccc(F)cc1)OC(=O)[C@@H](NC(=O)c1cc(C)on1)C(C)C [Compound C-1, Ethyl-3-{(5′-Methylisoxazole-3′-carbonyl)-L-Val-O-L-(4-F-Phe)-L-Gln}-E-Propenoate]		0.1	0.1	68400							
CCOC(=O)/C=C/[C@H](CCC(N)=O)NC(=O)[C@H](Cc1ccccc1)NC(=O)[C@H](CC(C)C)NC(=O)c1cc(C)on1 [Compound A-1, Ethyl-3-((5′-Methylisoxazole-3′-carbonyl)-L-Leu-L-Phe-L-Gin)-E-Propenoate]		0.25	0.25	260000	1		0.41	0.22			
CCOC(=O)/C=C/[C@H](CCC(N)=O)NC(=O)[C@H](Cc1ccc(C)cc1)NC(=O)[C@@H](NC(=O)C1SCCS1)C(C)(C)C [Compound A-15]	> 100	0.22	0.22	237000	7.1	2.7					
CCOC(=O)/C=C/[C@H](CCC(N)=O)NC(=O)[C@H](Cc1ccc(F)cc1)NC(=O)[C@@H](NC(=O)c1cc(C)on1)C(C)C [Compound A-6, Ethyl-3-[(5′-Methylisoxazole-3′-carbonyl)-L-Val-L-(4-F-Phe)-L-Gln]-E-Propenoate]		0.42	0.42	248000							
Ethyl-3-((5′-Methylisoxazole-3′-carbonyl)-L-Leu-NCH3-L-Phe-L-Gln)-E-Provenoate [Compound A-10]									0.14	0.14	108,000 M^−1sec^−1
CCOC(=O)/C=C/[C@H](CCC(N)=O)NC(=O)[C@H](Cc1ccccc1)NC(=O)[C@H](CC(C)C)NC(=O)[C@@H]1C=CCN1 [Compound A-19]	> 100	25.1	25.1	27800							
CCOC(=O)/C=C/[C@H](C[C@H]1CCNC1=O)NC(=O)[C@H](Cc1ccccc1)NC(=O)[C@H](CC(C)C)NC(=O)OCc1ccccc1 [Compound A-27, Ethyl-3-{Cbz-L-Leu-L-Phe-L-((R)-Pyrrol-Ala)}-E-Propenoate]		1.6	1.6	18000							
CC(C)C[C@H](NC(=O)OCc1ccccc1)C(=O)N[C@@H](Cc1ccccc1)C(=O)N[C@H](/C=C/c1ccno1)CCC(N)=O [Comparison Compound #1, 5-(3′-(Cbz-L-Leu-L-Phe-L-Gln)-E-Propene)-isoxazole, reference compound]		> 320	> 320	573							
CCOC(=O)/C=C/[C@H](CCC(N)=O)NC(=O)[C@H](Cc1ccccc1)NC(=O)[C@H](CC(C)C)NC(=O)c1cc(C)oc1C [Compound A-20]	> 100	12.6	12.6	1020							
CCOC(=O)/C=C/[C@H](CCC(N)=O)NC(=O)[C@@H](CC(=O)[C@@H](NC(=O)c1cc(C)on1)C(C)C)Cc1ccc(F)cc1 [Compound B-1, Ethyl-3-[(5′-Methylisoxazole-3′-carbonyl)-L-ValΨ(COCH2)-L-(4-F-Phe)-L-Gln}-E-Propenoate]		0.1	0.1	240000	0.3	0.4					
CCOC(=O)/C=C/[C@H](CCC(N)=O)NC(=O)[C@H](Cc1ccccc1)NC(=O)[C@@H](NC(=O)c1cccs1)C(C)(C)C [Compound A-14]	> 100	0.48	0.48	54500							
CCOC(=O)/C=C/[C@H](CCC(N)=O)NC(=O)[C@H](Cc1ccc(F)cc1)N(C)C(=O)[C@H](CC(C)C)NC(=O)c1cc(C)on1 [Compound A-12, Ethyl-3-{(5′-Methylisoxazole-3′-carbonyl)-L-Leu-NCH3-L-(4-F-Phe)-L-Gln}-E-Propenoate]		0.4	0.4	59300							
